In the assay the target is T1, Estrogen receptor (Homo sapiens, UniProt P03372).
T1 sequence (P03372 whole entry): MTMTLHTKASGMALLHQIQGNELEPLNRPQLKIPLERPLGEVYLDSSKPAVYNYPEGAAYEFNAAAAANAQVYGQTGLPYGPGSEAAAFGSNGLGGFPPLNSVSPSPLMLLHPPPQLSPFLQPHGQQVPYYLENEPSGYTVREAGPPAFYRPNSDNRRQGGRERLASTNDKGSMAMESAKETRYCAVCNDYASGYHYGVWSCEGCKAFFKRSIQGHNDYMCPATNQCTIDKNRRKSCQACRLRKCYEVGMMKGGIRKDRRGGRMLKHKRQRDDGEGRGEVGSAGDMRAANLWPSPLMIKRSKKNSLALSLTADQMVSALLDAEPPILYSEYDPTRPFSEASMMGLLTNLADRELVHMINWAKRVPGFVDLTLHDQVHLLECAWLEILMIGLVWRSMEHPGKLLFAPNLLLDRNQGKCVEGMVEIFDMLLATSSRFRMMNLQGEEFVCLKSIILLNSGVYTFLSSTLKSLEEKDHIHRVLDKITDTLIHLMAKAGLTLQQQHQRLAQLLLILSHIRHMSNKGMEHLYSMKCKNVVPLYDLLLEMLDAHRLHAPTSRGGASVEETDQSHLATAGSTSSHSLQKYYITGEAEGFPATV
The experiment in a line: Binding Assay: The competition assay was performed in a 96-well plate (polystyrene*) which binds <2.0% of the total input [3H]-17beta-estradiol and each data point was gathered in triplicate. 100 uG/100 uL of the receptor preparation was aliquoted per well. A saturating dose of 2.5 nM [3H]17beta-estradiol+competitor (or buffer) in a 50 uL volume was added in the preliminary competition when 100x ….

In the case of `Cc1c(-c2ccc(O)cc2)n(Cc2ccc(OCCN3CC4CCC3C4)cc2)c2ccc(O)cc12` (stereo unspecified), the 50% inhibitory concentration (IC50) (usually the point on the concentration scale where inhibition reaches its midpoint) came out at 1 nM.

The values are drawn from ChEMBL document CHEMBL3639280, “2-Phenyl-1-[4-(2-Aminoethoxy)-Benzyl]-Indole and estrogen formulations” (2014).
